Patent US20100292205A1, “Pyrimidone Compounds As GSK-3 Inhibitors” (PFIZER INC., priority 2006, published 2010)

Target: T1, Recombinant human GSK3β (Homo sapiens, UniProt P49841)
T1 construct: His-tag; made in house; host or cells: Sf9 insect cells / baculovirus
Assay: GSK-3β (Glycogen Synthase Kinase) cell free enzyme assay
Type: biochemical
Conditions: 1 μM; Examples 157-199; read-out: Percent inhibition at 1 μM
How it was run: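 This cell-free kinase assay measured [33P] transfer from [33P]ATP gamma phosphate into the biotinylated peptide bio-LC-S-R-H-S-S-P-H-Q-pS-E-D-E-E-E-OH. After 60 min at RT, reactions were stopped with 0.66 volume of PBS lacking Ca or Mg containing 12.5 mM EDTA, 0.25% Triton-X 100, 125 uM ATP and 6.2 mg/ml streptavidin SPA beads. Bead-bound radioactivity was counted as CPM on a Trilux scintillation counter.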

T1 sequence (P49841 whole entry): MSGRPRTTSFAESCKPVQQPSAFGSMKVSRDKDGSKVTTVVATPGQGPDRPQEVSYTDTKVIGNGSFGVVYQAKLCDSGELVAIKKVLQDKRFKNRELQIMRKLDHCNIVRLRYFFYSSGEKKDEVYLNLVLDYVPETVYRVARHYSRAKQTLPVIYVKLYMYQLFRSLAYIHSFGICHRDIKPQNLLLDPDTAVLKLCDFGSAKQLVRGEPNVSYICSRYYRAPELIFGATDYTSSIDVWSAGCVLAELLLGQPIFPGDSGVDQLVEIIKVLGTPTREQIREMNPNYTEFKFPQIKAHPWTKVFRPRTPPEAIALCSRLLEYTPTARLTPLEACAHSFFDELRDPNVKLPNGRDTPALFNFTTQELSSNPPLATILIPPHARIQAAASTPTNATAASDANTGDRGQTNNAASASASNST

SMILES | inhibition at 1 µM [%]
CCN(c1nc(-c2ccncc2)cc(=O)n1C)C1CCCN(S(=O)(=O)c2ccccc2)C1 (centres unmarked) [Example 185, 2-{Ethyl[1-(phenylsulfonyl)piperidin-3-yl]amino}-3-methyl-6-pyridin-4-ylpyrimidin-4(3H)-one] | 101
Cn1c(NC2CCCN(S(=O)(=O)Cc3ccccc3)CC2)nc(-c2ccncc2)cc1=O (centres unmarked) [Example 192, 2-{[1-(Benzylsulfonyl)azepan-4-yl]amino}-3-methyl-6-pyridin-4-ylpyrimidin-4(3H)-one] | 81
CN(c1nc(-c2ccncc2)cc(=O)n1C)C1CCCN(S(=O)(=O)c2ccccc2)CC1 (centres unmarked) [Example 181, 3-Methyl-2-{methyl[1-(phenylsulfonyl)azepan-4-yl]amino}-6-pyridin-4-ylpyrimidin-4(3H)-one] | 96
CCN(C[C@H]1CCCN1S(C)(=O)=O)c1nc(-c2ccncc2)cc(=O)n1C [Example 166, 2-(Ethyl{[(2R)-1-(methylsulfonyl)pyrrolidin-2-yl]methyl}amino)-3-methyl-6-pyridin-4-ylpyrimidin-4(3H)-one] | 74
Cn1c(N2CC[C@@H]3CN(S(=O)(=O)c4ccccc4)C[C@@H]32)nc(-c2ccncc2)cc1=O [Example 172, 3-Methyl-2-[(3a,R6,aR)-5-(phenylsulfonyl)hexahydro-pyrrolo[34-b]pyrrol-1(2H)-yl]-6-pyridin-4-ylpyrimidin-4(3H)-one] | 81
Cn1c(NC2CCN(S(=O)(=O)c3ccccc3)CC2)nc(-c2ccncc2)cc1=O [Example 175, 3-Methyl-2-{[1-(phenylsulfonyl)piperidin-4-yl]amino}-6-pyridin-4-ylpyrimidin-4(3H)-one] | 49
CCN(c1nc(-c2ccncc2)cc(=O)n1C)C1CCCN(S(=O)(=O)c2ccccc2)CC1 (centres unmarked) [Example 186, 2-{Ethyl[1-(phenylsulfonyl)azepan-4-yl]amino}-3-methyl-6-pyridin-4-ylpyrimidin-4(3H)-one] | 101
CCN(c1nc(-c2ccncc2)cc(=O)n1C)C1CCCN(S(C)(=O)=O)C1 (centres unmarked) [Example 164, 2-{Ethyl[1-(methylsulfonyl)piperidin-3-yl]amino)-3-methyl-6-pyridin-4-ylpyrimidin-4(3H)-one] | 82

Same assay, conditions: 1 μM; Examples 201-221; read-out: Percent inhibition at 1 μM

SMILES | inhibition at 1 µM [%]
COC(=O)N1CCCC(Nc2nc(-c3ccncc3)cc(=O)n2C)C1 (centres unmarked) [Example 210, Methyl 3-[(1-methyl-6-oxo-4-pyridin-4-yl-16-dihydropyrimidin-2-yl)amino]piperidine-1-carboxylate] | 99
COC(=O)N1C[C@H](Nc2nc(-c3ccncc3)cc(=O)n2C)[C@@H](F)C1 [Example 207, Methyl (3S,4S)-3-fluoro-4-[(1-methyl-6-oxo-4-pyridin-4-yl-l6-dihydropyrimidin-2-yl)amino]pyrrolidine-1-carboxylate] | 74
COC(=O)N1CCC(N(C)c2nc(-c3ccncc3)cc(=O)n2C)C1 (centres unmarked) [Example 213, Methyl 3-[methyl(1-methyl-6-oxo-4-pyridin-4-yl-16-dihydropyrimidin-2-yl)amino]pyrrolidine-1-carboxylate] | 95

Same assay, conditions: 1 μM; Examples 236-262; read-out: Percent inhibition at 1 μM

SMILES | inhibition at 1 µM [%]
CN1CC(CNc2nc(-c3ccncc3)cc(=O)n2C)C1 [Example 249, 3-Methyl-2-{[(1-methylazetidin-3-yl)methyl]amino}-6-pyridin-4-ylpyrimidin-4(3H)-one] | 33

Same assay, conditions: 1 μM; GSK-3β cell free enzyme assay; Examples 42-60; read-out: Percent inhibition at 1 μM

SMILES | inhibition at 1 µM [%]
CC(=O)N1CCC(N(C)c2nc(-c3ccncc3)cc(=O)n2C)C1 (centres unmarked) [Example 52, 2-[(1-Acetylpyrrolidin-3-yl)(methyl)amino]-3-methyl-6-pyridin-4-ylpyrimidin-4(3H)-one] | 51

Same assay, conditions: cell free enzyme assay; Examples 1-35

SMILES | IC50 [µM]
Cn1c(N[C@H]2Cc3ccccc3NC2=O)nc(-c2ccncc2)cc1=O [Example 9, (3S)-3-[(1-Methyl-6-oxo-4-pyridin-4-yl-1,6-dihydropyrimidin-2-yl)amino]-3,4-dihydroquinolin-2(1H)-one] | 0.03
Cn1c(NC2(c3cccc(C(C)(C)C)c3)CCOCC2)nc(-c2ccncc2)cc1=O [Example 27, 2-{[4-(3-tert-Butylphenyl)tetra-hydro-2H-pyran-4-yl]amino}-3-methyl-6-pyridin-4-ylpyrimidin-4(3H)-one] | 0.012
Cn1c(NCCc2nc(-c3ccccc3)cs2)nc(-c2ccncc2)cc1=O [Example 29, 3-Methyl-2-{[2-(4-phenyl-1,3-thiazol-2-yl)ethyl]amino}-6-pyridin-4-ylpyrimidin-4(3H)-one] | 0.016

Same assay, conditions: cell free enzyme assay; Examples 62-155

SMILES | IC50 [µM]
CC(C)CC(=O)N1C[C@@H]2[C@H](C1)[C@H]2N(C)c1nc(-c2ccncc2F)cc(=O)n1C [Example 110, 6-(3-Fluoropyridin-4-yl)-3-methyl-2-{methyl[(1R,5S,6s)-3-(3-methylbutanoyl)-3-azabicyclo[3.1.0]hex-6-yl]amino}pyrimidin-4(3H)-one] | 0.0183
Cn1c(NC2CCCN(C(=O)c3ccccc3)CC2)nc(-c2ccncc2)cc1=O (centres unmarked) [Example 63, 2-[(1-Benzoylazepan-4-yl)amino]-3-methyl-6-pyridin-4-ylpyrimidin-4(3H)-one] | 0.0124
Cc1cc(C(=O)N2C[C@@H]3[C@H](C2)[C@H]3N(C)c2nc(-c3ccncc3F)cc(=O)n2C)c(C)o1 [Example 147, 2-{[(1R,5S,6s)-3-(2,5-Dimethyl-3-furoyl)-3-azabicyclo[3.1.0]hex-6-yl](methyl)amino}-6-(3-fluoropyridin-4-yl)-3-methylpyrimidin-4(3H)-one] | 0.0037
CCCC(=O)N1C[C@@H]2[C@H](C1)[C@H]2N(C)c1nc(-c2ccncc2F)cc(=O)n1C [Example 138, 2-{[(1R,5S,6s)-3-Butyryl-3-azabicyclo[3.1.0]hex-6-yl](methyl)amino}-6-(3-fluoropyridin-4-yl)-3-methylpyrimidin-4(3H)-one] | 0.0138
Cn1c(NCC2CCN(C(=O)c3ccccc3)C2)nc(-c2ccncc2)cc1=O (centres unmarked) [Example 79, 2-{[(1-Benzoylpyrrolidin-3-yl)methyl]amino}-3-methyl-6-pyridin-4-ylpyrimidin-4(3H)-one] | 0.0699
CN(c1nc(-c2ccncc2F)cc(=O)n1C)[C@H]1[C@@H]2CN(C(=O)c3ccccc3)C[C@@H]21 [Example 150, 2-{[(1R,5S,6s)-3-Benzoyl-3-azabicyclo[3.1.0]hex-6-yl](methyl)amino}-6-(3-fluoropyridin-4-yl)-3-methylpyrimidin-4(3H)-one] | 0.00151
CN(c1nc(-c2ccncc2F)cc(=O)n1C)[C@H]1[C@@H]2CN(C(=O)c3ccnc(Cl)c3)C[C@@H]21 [Example 112, 2-{[(1R,5S,6s)-3-(2-Chloroisonicotinoyl)-3-azabicyclo[3.1.0]hex-6-yl](methyl)amino}-6-(3-fluoropyridin-4-yl)-3-methylpyrimidin-4(3H)-one] | 0.00263
CN(c1nc(-c2ccncc2F)cc(=O)n1C)[C@H]1[C@@H]2CN(C(=O)c3ccc(F)cc3)C[C@@H]21 [Example 139, 2-{[(1R,5S,6s)-3-(4-Fluorobenzoyl)-3-azabicyclo[3.1.0]hex-6-yl](methyl)amino}-6-(3-fluoropyridin-4-yl)-3-methylpyrimidin-4(3H)-one] | 0.00567
Cn1c(NC2CCCN(C(=O)Cc3ccccc3)C2)nc(-c2ccncc2)cc1=O (centres unmarked) [Example 86, 3-Methyl-2-{[1-(phenylacetyl)piperidin-3-yl]amino}-6-pyridin-4-ylpyrimidin-4(3H)-one] | 0.136
Cn1c(NC[C@H]2CCCN2C(=O)c2ccccc2)nc(-c2ccncc2)cc1=O [Example 78, 2-({[(2R)-1-Benzoylpyrrolidin-2-yl]methyl}amino)-3-methyl-6-pyridin-4-ylpyrimidin-4(3H)-one] | 0.277
Cn1c(NCC2CN(C(=O)c3ccccc3)C2)nc(-c2ccncc2)cc1=O [Example 76, 2-{[(1-Benzoylazetidin-3-yl)methyl]amino}-3-methyl-6-pyridin-4-ylpyrimidin-4(3H)-one] | 0.0724

Same assay, conditions: cell free enzyme assay; Examples 222-234

SMILES | IC50 [µM]
CCN(C[C@H]1CCCN1C(=O)OC)c1nc(-c2ccncn2)cc(=O)n1C [Example 226, Methyl (2R)-2-{[ethyl(1-methyl-6-oxo-1,6-dihydro-4,4′-bipyrimidin-2-yl)amino]methyl}pyrrolidine-1-carboxylate] | 0.001

Same assay, conditions: cell free enzyme assay; Examples 265-291

SMILES | IC50 [µM]
CN(c1nc(-c2ccncc2F)cc(=O)n1C)[C@H]1[C@@H]2CN(c3nc4ccc(F)cc4n3C)C[C@@H]21 [Example 269, 2-{[(1R,5S,6s)-3-(6-Fluoro-1-methyl-1H-benzimidazol-2-yl)-3-azabicyclo[3.1.0]hex-6-yl](methyl)amino}-6-(3-fluoropyridin-4-yl)-3-methylpyrimidin-4(3H)-one] | 0.0188
CN(c1nc(-c2ccncc2F)cc(=O)n1C)[C@H]1[C@@H]2CN(c3nnnn3C3CCCC3)C[C@@H]21 [Example 284, 2-{[(1R,5S,6s)-3-(1-Cyclopentyl-1H-tetrazol-5-yl)-3-azabicyclo[3.1.0]hex-6-yl](methyl)amino}-6-(3-fluoropyridin-4-yl)-3-methylpyrimidin-4(3H)-one] | 0.0125
CN(c1nc(-c2ccncc2F)cc(=O)n1C)[C@H]1[C@@H]2CN(c3nnnn3Cc3ccc(C#N)cc3)C[C@@H]21 [Example 271, 4-({5-[(1R,5S,6s)-6-{[4-(3-Fluoropyridin-4-yl)-1-methyl-6-oxo-1,6-dihydropyrimidin-2-yl](methyl)amino}-3-azabicyclo[3.1.0]hex-3-yl]-1H-tetrazol-1-yl}methyl)benzonitrile] | 0.0088
CN(c1nc(-c2ccncc2F)cc(=O)n1C)[C@H]1[C@@H]2CN(c3nnnn3Cc3cccc(OC(F)(F)F)c3)C[C@@H]21 [Example 290, 6-(3-Fluoropyridin-4-yl)-3-methyl-2-{methyl[(1R,5S,6s)-3-{1-[3-(trifluoromethoxy)benzyl]-1H-tetrazol-5-yl}-3-azabicyclo[3.1.0]hex-6-yl]amino}pyrimidin-4(3H)-one] | 0.0277
